# US8097628B2, “Compounds” (Glaxo Group Limited, priority 2008, dated 2012)
# Where a name gives a salt, the structure may show the parent alone.
# System: Mycobacterium tuberculosis H37Rv
# Experiment: Mycobacterium tuberculosis H37Rv Inhibition Assay
# Format: cell-based
# Settings: ATCC 25618 / H37Rv, H37Rv strain (ATCC25618), Middlebrook 7H9, resazurin fluorescence, read-out: MtB MIC
row,Compound,MIC [µg/mL]
1,"O=c1ccc2ncc(=O)n3c2n1CC3CN1CCC(NCc2ccc(Br)cn2)CC1 (centres unmarked) [Example 40, 2-[(4-{[(5-bromo-2-pyridinyl)methyl]amino}-1-piperidinyl)methyl]-1,2-dihydro-3H,8H-2a,5,8a-triazaacenaphthylene-3,8-dione]",1.18
2,"Cl.O=c1ccc2ncc(=O)n3c2n1C[C@H]3CN1CCC(NCc2ccc(C(F)(F)F)nc2)CC1 [Example 46, (2R)-2-{[4-({[6-(trifluoromethyl)-3-pyridinyl]methyl}amino)-1-piperidinyl]methyl}-1,2-dihydro-3H,8H-2a,5,8a-triazaacenaphthylene-3,8-dione hydrochloride]",0.078
3,"O=c1ccc2ncc(=O)n3c2n1C[C@@H]3CN1CCC(NCc2ccc(Cl)c(Cl)c2)CC1 [Example 47, (2S)-2-[(4-{[(3,4-dichlorophenyl)methyl]amino}-1-piperidinyl)methyl]-1,2-dihydro-3H,8H-2a,5,8a-triazaacenaphthylene-3,8-dione]",0.072
4,"Cc1cc(CNC2CCN(C[C@@H]3Cn4c(=O)ccc5ncc(=O)n3c54)CC2)ccc1F.Cl [Example 6, (2R)-2-[(4-{[(4-fluoro-3-methylphenyl)methyl]amino}-1-piperidinyl)methyl]-1,2-dihydro-3H,8H-2a,5,8a-triazaacenaphthylene-3,8-dione hydrochloride]",0.29
5,"N#Cc1ncc(CNC2CCN(C[C@@H]3Cn4c(=O)ccc5ccc(=O)n3c54)CC2)cc1Cl [Example 49, 3-chloro-5-{[(1-{[(1R)-4,9-dioxo-1,2-dihydro-4H,9H-imidazo[1,2,3-ij]-1,8-naphthyridin-1-yl]methyl}-4-piperidinyl)amino]methyl}-2-pyridinecarbonitrile]",0.07
6,"O=c1ccc2ncc(=O)n3c2n1CC3CN1CCC(NCc2ccc(C(F)(F)F)nn2)CC1 (centres unmarked) [Example 17, 2-{[4-({[6-(trifluoromethyl)-3-pyridazinyl]methyl}amino)-1-piperidinyl]methyl}-1,2-dihydro-3H,8H-2a,5,8a-triazaacenaphthylene-3,8-dione]",0.865
7,"Cc1ncc(CNC2CCN(CC3Cn4c(=O)ccc5ncc(=O)n3c54)CC2)cc1F (centres unmarked) [Example 52, 2-[(4-{[(5-fluoro-6-methyl-3-pyridinyl)methyl]amino}-1-piperidinyl)methyl]-1,2-dihydro-3H,8H-2a,5,8a-triazaacenaphthylene-3,8-dione]",> 2.12
8,"Cc1cc(CNC2CCN(C[C@@H]3Cn4c(=O)ccc5ccc(=O)n3c54)CC2)ncc1Cl.Cl [Example 7, (1R)-1-[(4-{[(5-chloro-4-methyl-2-pyridinyl)methyl]amino}-1-piperidinyl)methyl]-1,2-dihydro-4H,9H-imidazo[1,2,3-ij]-1,8-naphthyridine-4,9-dione hydrochloride]",0.3
9,"O=c1ccc2ccc(=O)n3c2n1C[C@H]3CN1CCC(NCc2cnc(CO)c(Cl)c2)CC1 [Example 56, (1R)-1-{[4-({[5-chloro-6-(hydroxymethyl)-3-pyridinyl]methyl}amino)-1-piperidinyl]methyl}-1,2-dihydro-4H,9H-imidazo[1,2,3-ij]-1,8-naphthyridine-4,9-dione]",0.3
10,"Cl.O=c1ccc2ncc(=O)n3c2n1CC3CN1CCC(NCc2ccc(Cl)c(Cl)c2)CC1 (centres unmarked) [Example 36, 2-[(4-{[(3,4-dichlorophenyl)methyl]amino}-1-piperidinyl)methyl]-1,2-dihydro-3H,8H-2a,5,8a-triazaacenaphthylene-3,8-dione]",0.015
11,"O=c1ccc2ncc(=O)n3c2n1CC3CN1CCC(NCc2cncc(Br)c2)CC1 (centres unmarked) [Example 41, 2-[(4-{[(5-bromo-3-pyridinyl)methyl]amino}-1-piperidinyl)methyl]-1,2-dihydro-3H,8H-2a,5,8a-triazaacenaphthylene-3,8-dione]",0.884
12,"O=c1ccc2ncc(=O)n3c2n1C[C@@H]3CN1CCC(NCc2ccc(C(F)(F)F)nc2)CC1 [Example 48, (2S)-2-{[4-({[6-(trifluoromethyl)-3-pyridinyl]methyl}amino)-1-piperidinyl]methyl}-1,2-dihydro-3H,8H-2a,5,8a-triazaacenaphthylene-3,8-dione]",2.3
13,"Cc1cc(CNC2CCN(CC3Cn4c(=O)ccc5ncc(=O)n3c54)CC2)sc1Br (centres unmarked) [Example 24, 2-[(4-{[(5-bromo-4-methyl-2-thienyl)methyl]amino}-1-piperidinyl)methyl]-1,2-dihydro-3H,8H-2a,5,8a-triazaacenaphthylene-3,8-dione]",0.077
14,"O=c1ccc2ncc(=O)n3c2n1CC3CN1CCC(NCc2ccc(C(F)(F)F)cc2)CC1 (centres unmarked) [Example 28, 2-{[4-({[4-(trifluoromethyl)phenyl]methyl}amino)-1-piperidinyl]methyl}-1,2-dihydro-3H,8H-2a,5,8a-triazaacenaphthylene-3,8-dione]",0.144
15,"O=c1ccc2ncc(=O)n3c2n1CC3CN1CCC(NCc2ccc(OC(F)(F)F)cc2)CC1 (centres unmarked) [Example 27, 2-({4-[({4-[(trifluoromethyl)oxy]phenyl}methyl)amino]-1-piperidinyl}methyl)-1,2-dihydro-3H,8H-2a,5,8a-triazaacenaphthylene-3,8-dione]",2.38
16,"O=c1ccc2ncc(=O)n3c2n1CC3CN1CCC(NCc2cnc(Cl)s2)CC1 (centres unmarked) [Example 37, 2-[(4-{[(2-chloro-1,3-thiazol-5-yl)methyl]amino}-1-piperidinyl)methyl]-1,2-dihydro-3H,8H-2a,5,8a-triazaacenaphthylene-3,8-dione]",2.17
17,"O=c1ccc2ncc(=O)n3c2n1CC3CN1CCC(NCc2ccc([N+](=O)[O-])cc2)CC1 (centres unmarked) [Example 38, 2-[(4-{[(4-nitrophenyl)methyl]amino}-1-piperidinyl)methyl]-1,2-dihydro-3H,8H-2a,5,8a-triazaacenaphthylene-3,8-dione]",0.273
18,"O=c1ccc2ncc(=O)n3c2n1CC3CN1CCC(NCc2ccc(F)c(F)c2)CC1 (centres unmarked) [Example 44, 2-[(4-{[(3,4-difluorophenyl)methyl]amino}-1-piperidinyl)methyl]-1,2-dihydro-3H,8H-2a,5,8a-triazaacenaphthylene-3,8-dione]",0.267
19,"COc1cc(CNC2CCN(CC3Cn4c(=O)ccc5ncc(=O)n3c54)CC2)ccc1C (centres unmarked) [Example 57, 2-{[4-({[4-methyl-3-(methyloxy)phenyl]methyl}amino)-1-piperidinyl]methyl}-1,2-dihydro-3H,8H-2a,5,8a-triazaacenaphthylene-3,8-dione]",1.09
20,"Cl.N#Cc1ncc(CNC2CCN(C[C@@H]3Cn4c(=O)ccc5ccc(=O)n3c54)CC2)cc1Cl [Example 50, 3-chloro-5-{[(1-{[(1R)-4,9-dioxo-1,2-dihydro-4H,9H-imidazo[1,2,3-ij]-1,8-naphthyridin-1-yl]methyl}-4-piperidinyl)amino]methyl}-2-pyridinecarbonitrile dihydrochloride]",0.082
21,"O=c1ccc2ncc(=O)n3c2n1CC3CN1CCC(NCc2cccc(Cl)c2)CC1 (centres unmarked) [Example 22, 2-[(4-{[(3-chlorophenyl)methyl]amino}-1-piperidinyl)methyl]-1,2-dihydro-3H,8H-2a,5,8a-triazaacenaphthylene-3,8-dione]",1.06
22,"Cc1ccc(CNC2CCN(CC3Cn4c(=O)ccc5ncc(=O)n3c54)CC2)cc1F (centres unmarked) [Example 43, 2-[(4-{[(3-fluoro-4-methylphenyl)methyl]amino}-1-piperidinyl)methyl]-1,2-dihydro-3H,8H-2a,5,8a-triazaacenaphthylene-3,8-dione]",0.066
23,"O=c1ccc2ncc(=O)n3c2n1CC3CN1CCC(NCc2ccc(Cl)c(C(F)(F)F)c2)CC1 (centres unmarked) [Example 16, 2-{[4-({[4-chloro-3-(trifluoromethyl)phenyl]methyl}amino)-1-piperidinyl]methyl}-1,2-dihydro-3H,8H-2a,5,8a-triazaacenaphthylene-3,8-dione]",0.077
24,"O=c1ccc2ncc(=O)n3c2n1CC3CN1CCC(NCc2cnc(Cl)c(Cl)c2)CC1 (centres unmarked) [Example 15, 2-[(4-{[(5,6-dichloro-3-pyridinyl)methyl]amino}-1-piperidinyl)methyl]-1,2-dihydro-3H,8H-2a,5,8a-triazaacenaphthylene-3,8-dione]",< 0.018
25,"O=c1ccc2ccc(=O)n3c2n1C[C@H]3CN1CCC(NCc2ccc(C(F)(F)F)nn2)CC1 [Example 18, (1R)-1-{[4-({[6-(trifluoromethyl)-3-pyridazinyl]methyl}amino)-1-piperidinyl]methyl}-1,2-dihydro-4H,9H-imidazo[1,2,3-ij]-1,8-naphthyridine-4,9-dione]",0.432
26,"Cl.N#Cc1cc(CNC2CCN(C[C@@H]3Cn4c(=O)ccc5ncc(=O)n3c54)CC2)ccc1F [Example 5, 5-{[(1-{[(2R)-3,8-dioxo-1,2-dihydro-3H,8H-2a,5,8a-triazaacenaphthylen-2-yl]methyl}-4-piperidinyl)amino]methyl}-2-fluorobenzonitrile hydrochloride]",0.11
27,"Cc1ncc(CNC2CCN(C[C@@H]3Cn4c(=O)cnc5ccc(=O)n3c54)CC2)cc1Cl.Cl [Example 8, (1R)-1-[(4-{[(5-chloro-6-methyl-3-pyridinyl)methyl]amino}-1-piperidinyl)methyl]-1,2-dihydro-3H,8H-2a,5,8a-triazaacenaphthylene-3,8-dione hydrochloride]",0.08
28,"O=c1ccc2ncc(=O)n3c2n1CC3CN1CCC(NCc2cncc(Cl)c2)CC1 (centres unmarked) [Example 42, 2-[(4-{[(5-chloro-3-pyridinyl)methyl]amino}-1-piperidinyl)methyl]-1,2-dihydro-3H,8H-2a,5,8a-triazaacenaphthylene-3,8-dione]",1.07
29,"Cc1ccc(CNC2CCN(CC3Cn4c(=O)ccc5ncc(=O)n3c54)CC2)cc1[N+](=O)[O-] (centres unmarked) [Example 23, 2-[(4-{[(4-methyl-3-nitrophenyl)methyl]amino}-1-piperidinyl)methyl]-1,2-dihydro-3H,8H-2a,5,8a-triazaacenaphthylene-3,8-dione]",0.036

# Same assay, conditions: ATCC 25618 / H37Rv, read-out: MtB MIC
row,Compound,MIC [µg/mL]
1,"Cc1ncc(CNC2CCN(C[C@@H]3Cn4c(=O)cnc5ccc(=O)n3c54)CC2)cc1Br [Example 55, (1R)-1-[(4-{[(5-bromo-6-methyl-3-pyridinyl)methyl]amino}-1-piperidinyl)methyl]-1,2-dihydro-3H,8H-2a,5,8a-triazaacenaphthylene-3,8-dione hydrochloride]",0.04

# Same assay, conditions: H37Rv inhibition assay, read-out: MIC value
row,Compound,MIC [µg/mL]
1,"O=c1ccc2ncc(=O)n3c2n1CC3CN1CCC(NCc2ccc(Br)cn2)CC1 (centres unmarked) [Example 40, 2-[(4-{[(5-bromo-2-pyridinyl)methyl]amino}-1-piperidinyl)methyl]-1,2-dihydro-3H,8H-2a,5,8a-triazaacenaphthylene-3,8-dione]",> 1
2,"Cc1ncc(CNC2CCN(CC3Cn4c(=O)ccc5ncc(=O)n3c54)CC2)cc1F (centres unmarked) [Example 52, 2-[(4-{[(5-fluoro-6-methyl-3-pyridinyl)methyl]amino}-1-piperidinyl)methyl]-1,2-dihydro-3H,8H-2a,5,8a-triazaacenaphthylene-3,8-dione]",> 1
3,"O=c1ccc2ncc(=O)n3c2n1C[C@@H]3CN1CCC(NCc2ccc(C(F)(F)F)nc2)CC1 [Example 48, (2S)-2-{[4-({[6-(trifluoromethyl)-3-pyridinyl]methyl}amino)-1-piperidinyl]methyl}-1,2-dihydro-3H,8H-2a,5,8a-triazaacenaphthylene-3,8-dione]",> 1
4,"O=c1ccc2ncc(=O)n3c2n1CC3CN1CCC(NCc2ccc(OC(F)(F)F)cc2)CC1 (centres unmarked) [Example 27, 2-({4-[({4-[(trifluoromethyl)oxy]phenyl}methyl)amino]-1-piperidinyl}methyl)-1,2-dihydro-3H,8H-2a,5,8a-triazaacenaphthylene-3,8-dione]",> 1
5,"O=c1ccc2ncc(=O)n3c2n1CC3CN1CCC(NCc2cccc(Cl)c2)CC1 (centres unmarked) [Example 22, 2-[(4-{[(3-chlorophenyl)methyl]amino}-1-piperidinyl)methyl]-1,2-dihydro-3H,8H-2a,5,8a-triazaacenaphthylene-3,8-dione]",> 1
